Among the data in patent US11028079B2 (ConverGene LLC, priority 2015, dated 2021) are Kd values, retold here.

Where only a bound is given, the exact number is not on record here.

The target in the assay is T1, BRD4 bromodomains (Homo sapiens, UniProt O60885).
T1 construct: fused on or other part: T7 phage capsid protein (phage-display fusion; the phage DNA is read out by qPCR)
As to the kind of experiment: BROMOscan bromodomain competition binding assay (DiscoveRx). The note with it: Kd from 11 compound concentrations ranging from 0 to 10 μM, read-out: BROMOscan Relative Activity. Here is the method:
Bromodomain assays were conducted to measure interactions between certain compounds and bromodomains.
The assays were conducted according to BROMOscan protocol from Discover Rx. Briefly, BRD4 bromodomains expressed as a fusion capsid protein of T7 phage were bound to acetylated peptide ligand on a solid phase and competition bindings were performed. T7 phage strains displaying bromodomains were grown in parallel in 24-well blocks in an E. coli host derived from the BL21 strain. E. coli were grown to log-phase and infected with T7 phage from a frozen stock (multiplicity of infection=0.4) and incubated with shaking at 32° C. until lysis (90-150 minutes). The lysates were centrifuged (5,000×g) and filtered (0.2 μm) to remove cell debris. […] The liganded beads were blocked with excess biotin and washed with blocking buffer (SeaBlock (Pierce), 1% BSA, 0.05% Tween 20, 1 mM DTT) to remove unbound ligand and to reduce non-specific phage binding. […] Test compounds were prepared as 1000× stocks in 100% DMSO and subsequently diluted 1:10 in monoethylene glycol (MEG) to create stocks at 100× the screening concentration (resulting stock solution is 10% DMSO/90% MEG). The compounds were then diluted directly into the assays such that the final concentration of DMSO and MEG were 0.1% and 0.9%, respectively. All reactions were performed in polystyrene 96-well plates in a final volume of 0.135 ml. […] The bromodomain concentration in the eluates was measured by qPCR. Data was collected at 11 compound concentrations ranging from 0 to 10 μM. Kd values were then derived from a standard dose-response curve generated with Hill equation (Hill Slope was set to ˜1) and a non-linear least square fit with the Levenberg-Marquardt algorithm. Response=Background+Signal−Background/1+(Kd Hill Slope/Dose Hill Slope)
Consider `Cc1noc(C)c1-c1ccc2nc(C(=O)Nc3ccncc3F)nc(NCc3cccc(Cl)c3)c2c1` [Example 223, 4-((3-chlorobenzyl)amino)-6-(3,5-dimethylisoxazol-4-yl)-N-(3-fluoropyridin-4-yl)quinazoline-2-carboxamide], for which the Kd was more than 5000 nM.
`Cc1noc(C)c1-c1ccc2nc(C(=O)Nc3ccc(Cl)nc3)nc(NCc3cccc(Cl)c3)c2c1` [Example 222, 4-((3-chlorobenzyl)amino)-N-(6-chloropyridin-3-yl)-6-(3,5-dimethylisoxazol-4-yl)quinazoline-2-carboxamide]: the Kd was more than 5000 nM.
The value for `Cc1cnccc1CNC(=O)c1nc(NCc2cccc(Cl)c2)c2cc(-c3c(C)noc3C)ccc2n1` [Example 217, 4-((3-chlorobenzyl)amino)-6-(3,5-dimethylisoxazol-4-yl)-N-((3-methylpyridin-4-yl)methyl)quinazoline-2-carboxamide] was less than 500 nM; that for `Cc1noc(C)c1-c1ccc2nc(N3CCC(CO)CC3)nc(NCc3cccc(Cl)c3)c2c1` [Example 23, (1-(4-((3-chlorobenzyl)amino)-6-(3,5-dimethylisoxazol-4-yl)quinazolin-2-yl)piperidin-4-yl)methanol] was 500 to 5000 nM.
For `Cc1noc(C)c1-c1ccc2nc(N3CCN(C(=O)C4CC4)CC3)nc(NCc3cccc(Cl)c3)c2c1` [Example 17, (4-(4-((3-chlorobenzyl)amino)-6-(3,5-dimethylisoxazol-4-yl)quinazolin-2-yl)piperazin-1-yl)(cyclopropyl)methanone], the Kd was less than 500 nM.
On to `Cc1noc(C)c1-c1ccc2nc(N3CCN(C[C@@H](C)O)CC3)nc(NCc3cccc(Cl)c3)c2c1` [Example 46, (R)-1-(4-(4-((3-chlorobenzyl)amino)-6-(3,5-dimethylisoxazol-4-yl)quinazolin-2-yl)piperazin-1-yl)propan-2-ol], for which the Kd was less than 500 nM.
The value for `Cc1noc(C)c1-c1ccc2nc(C(=O)NCc3cncc(F)c3)nc(NCc3cccc(Cl)c3)c2c1` [Example 192, 4-((3-chlorobenzyl)amino)-6-(3,5-dimethylisoxazol-4-yl)-N-((5-fluoropyridin-3-yl)methyl)quinazoline-2-carboxamide] was less than 500 nM.
The value for `Cc1noc(C)c1-c1ccc2nc(N3CCN(C[C@H](C)O)CC3)nc(NCc3cccc(Cl)c3)c2c1` [Example 47, (S)-1-(4-(4-((3-chlorobenzyl)amino)-6-(3,5-dimethylisoxazol-4-yl)quinazolin-2-yl)piperazin-1-yl)propan-2-ol] was less than 500 nM.
As for `Cn1cc(-c2ccc3nc(N4CCN(C(=O)CN)CC4)nc(NCc4cccc(Cl)c4)c3c2)ccc1=O` [Example 107, 5-(2-(4-(2-aminoacetyl)piperazin-1-yl)-4-((3-chlorobenzyl)amino)quinazolin-6-yl)-1-methylpyridin-2(1H)-one], the Kd was less than 500 nM.
With `CNC(=O)CN1CCN(c2nc(NCc3cncc(Cl)c3)c3cc(-c4ccc(=O)n(C)c4)ccc3n2)CC1` [Example 128, 2-(4-(4-(((5-chloropyridin-3-yl)methyl)amino)-6-(1-methyl-6-oxo-1,6-dihydropyridin-3-yl)quinazolin-2-yl)piperazin-1-yl)-N-methylacetamide] the figure was less than 500 nM.
With `Cc1noc(C)c1-c1ccc2nc(-c3cnn(CC(N)=O)c3)nc(NCc3cccc(Cl)c3)c2c1` [Example 50, 2-(4-(4-((3-chlorobenzyl)amino)-6-(3,5-dimethylisoxazol-4-yl)quinazolin-2-yl)-1H-pyrazol-1-yl)acetamide], the Kd is less than 500 nM.
With `Cc1noc(C)c1-c1ccc2nc(-c3cnn(C4CNC4)c3)nc(N3CCOC[C@@H]3c3ccccc3)c2c1` [Example 326, (S)-4-(2-(1-(azetidin-3-yl)-1H-pyrazol-4-yl)-6-(3,5-dimethylisoxazol-4-yl)quinazolin-4-yl)-3-phenylmorpholine] the figure was less than 500 nM; with `Cn1cc(-c2ccc3nc(-c4cnn(C(C)(C)CO)c4)nc(NCc4cncc(Cl)c4)c3c2)ccc1=O` [Example 149, 5-(4-(((5-chloropyridin-3-yl)methyl)amino)-2-(1-(1-hydroxy-2-methylpropan-2-yl)-1H-pyrazol-4-yl)quinazolin-6-yl)-1-methylpyridin-2(1H)-one], less than 500 nM; with `Cc1noc(C)c1-c1ccc2nc(N3CCC(C)(C#N)CC3)nc(NCc3cncc(Cl)c3)c2c1` [Example 157, 1-(4-(((5-chloropyridin-3-yl)methyl)amino)-6-(3,5-dimethylisoxazol-4-yl)quinazolin-2-yl)-4-methylpiperidine-4-carbonitrile], less than 500 nM.
Consider `Cn1cc(-c2ccc3nc(N4CCN(CCO)CC4)nc(NCc4cccc(Cl)c4)c3c2)ccc1=O` [Example 121, 5-(4-((3-chlorobenzyl)amino)-2-(4-(2-hydroxyethyl)piperazin-1-yl)quinazolin-6-yl)-1-methylpyridin-2(1H)-one], for which the Kd was less than 500 nM.
The value for `Cc1noc(C)c1-c1ccc2nc(-c3c(C)noc3C)nc(NCc3cccc(Cl)c3)c2c1` [Example 70, N-(3-chlorobenzyl)-2,6-bis(3,5-dimethylisoxazol-4-yl)quinazolin-4-amine] was 500 to 5000 nM.
As for `Cc1noc(C)c1-c1ccc2nc(NCCCO)nc(NCc3cccc(Cl)c3)c2c1` [Example 13, 3-((4-((3-chlorobenzyl)amino)-6-(3,5-dimethylisoxazol-4-yl)quinazolin-2-yl)amino)propan-1-ol], the Kd is less than 500 nM.
With `CC(=O)N1CCN(c2nc(NCc3cncc(Cl)c3)c3cc(-c4c(C)noc4C)ccc3n2)CC1` [Example 195, 1-(4-(4-(((5-chloropyridin-3-yl)methyl)amino)-6-(3,5-dimethylisoxazol-4-yl)quinazolin-2-yl)piperazin-1-yl)ethanone] the figure was less than 500 nM; with `Cc1ncsc1CNC(=O)c1nc(NCc2cccc(Cl)c2)c2cc(-c3c(C)noc3C)ccc2n1` [Example 258, 4-((3-chlorobenzyl)amino)-6-(3,5-dimethylisoxazol-4-yl)-N-((4-methylthiazol-5-yl)methyl)quinazoline-2-carboxamide], less than 500 nM; with `Cc1noc(C)c1-c1cc(NCc2cccc(Cl)c2)c2cc(Br)ccc2n1` [Example 15, 6-bromo-N-(3-chlorobenzyl)-2-(3,5-dimethylisoxazol-4-yl)quinolin-4-amine], more than 5000 nM.
Take `Cn1cc(-c2ccc3nc(N4CCN(C(=O)CN)CC4)nc(NCc4cncc(Cl)c4)c3c2)ccc1=O` [Example 133, 5-(2-(4-(2-aminoacetyl)piperazin-1-yl)-4-(((5-chloropyridin-3-yl)methyl)amino)quinazolin-6-yl)-1-methylpyridin-2(1H)-one]: the Kd is less than 500 nM.
For the compound `Cc1noc(C)c1-c1ccc2nc(-c3cnn(CCN(C)C)c3)nc(NCc3cccc(Cl)c3)c2c1` [Example 60, N-(3-chlorobenzyl)-2-(1-(2-(dimethylamino)ethyl)-1H-pyrazol-4-yl)-6-(3,5-dimethylisoxazol-4-yl)quinazolin-4-amine], the Kd is less than 500 nM.
For `Cc1noc(C)c1-c1ccc2nc(-c3cnn(CCC#N)c3)nc(NCc3cccc(Cl)c3)c2c1` [Example 57, 3-(4-(4-((3-chlorobenzyl)amino)-6-(3,5-dimethylisoxazol-4-yl)quinazolin-2-yl)-1H-pyrazol-1-yl)propanenitrile], the Kd was less than 500 nM.
For the compound `CNC(=O)CN1CCN(c2nc(NCc3cncc(Cl)c3)c3cc(-c4c(C)noc4C)ccc3n2)CC1` [Example 118, 2-(4-(4-(((5-chloropyridin-3-yl)methyl)amino)-6-(3,5-dimethylisoxazol-4-yl)quinazolin-2-yl)piperazin-1-yl)-N-methylacetamide], the Kd was less than 500 nM.
The value for `CC(=O)N1CC(n2cc(-c3nc(N4CCOC[C@@H]4c4ccccc4)c4cc(-c5c(C)noc5C)ccc4n3)cn2)C1` [Example 324, (S)-1-(3-(4-(6-(3,5-dimethylisoxazol-4-yl)-4-(3-phenylmorpholino)quinazolin-2-yl)-1H-pyrazol-1-yl)azetidin-1-yl)ethan-1-one] was less than 500 nM; that for `Cc1noc(C)c1-c1ccc2nc(C(=O)NC3CCN(C)CC3)nc(NCc3cncc(Cl)c3)c2c1` [Example 209, 4-(((5-chloropyridin-3-yl)methyl)amino)-6-(3,5-dimethylisoxazol-4-yl)-N-(1-methylpiperidin-4-yl)quinazoline-2-carboxamide] was less than 500 nM; that for `Cc1noc(C)c1-c1ccc2nc(N3CCN(C(=O)c4ccncc4)CC3)nc(NCc3cccc(Cl)c3)c2c1` [Example 29, (4-(4-((3-chlorobenzyl)amino)-6-(3,5-dimethylisoxazol-4-yl)quinazolin-2-yl)piperazin-1-yl)(pyridin-4-yl)methanone] was less than 500 nM.
Regarding `Cc1noc(C)c1-c1ccc2nc(N3CCN(CCCN(C)C)CC3)nc(NCc3cncc(Cl)c3)c2c1` [Example 130, N-((5-chloropyridin-3-yl)methyl)-2-(4-(3-(dimethylamino)propyl)piperazin-1-yl)-6-(3,5-dimethylisoxazol-4-yl)quinazolin-4-amine], the Kd is less than 500 nM.
